Experimental data reported in patent US10117854B2, “Method for treating hepatic encephalopathy” (MEDDAY PHARMACEUTICALS, priority 2016, dated 2018).
Where two headings read alike, the source gives them in different places.

How the values were obtained:
[1] = tested on: BDL rats; test: Open Field Test (behavioral test of hepatic encephalopathy); assay type: in vivo, rat; details: for OpenField test results compared with high-dose biotin: data not shown
Procedure: Bile duct ligation (BDL) was used as a biliary cirrhosis model. All rats oh this group were operated on. They were randomly separated in two groups: BDL or simple laparotomy (SHAM, control-group). The BDL procedure was conducted as described previously (Kountouras J, Prolonged bile duct obstruction: a new experimental model for cirrhosis in the rat; Br J Exp Pathol 1984) and as controlled in our lab. Surgery was done under total anesthesia with […] isofluran (Aerrane, Baxter Maurepas) 3% mixed with air. Analgesia was done by sub-cutaneous injection of buprenorphin 2% (Buprécare 0.3 mg/ml, Axience) immediately before and after surgery. Rifaximin (Sigma Aldrich) was mixed with water at the dose of 50 mg/kg/d and began 3 days after the surgery. […] To assess the hepatic encephalopathy, the Open Field Test (BioSeb) was used, a behavioral test validated in BDL rats to explore neurological impairments (Leke, Plos One 2012; 7(5)). The test was done the day of sacrifice, in standardized experimental conditions (hour, place, light, noise). Each rat was placed in a square 1 m^2 box and was free to explore the arena during 6 minutes. Two areas were defined in the square, center and periphery. Mobility parameters were registered by a three-dimensional camera. The data analyzed after 6 minutes of experiments were: total distance travelled (cm), time of mobility (s), speed (cm/s), number of zone changes, distance travelled in the center and periphery zone, time spent in the center and periphery zone, number of rearing, total duration of rearing.

[2] = tested on: BDL rats; test: Blood ammoniemia in bile duct ligated rats; assay type: in vivo, rat; details: biotin 300 mg/kg of food (30 mg/kg BW/day), ANOVA p=0.01, FIG. 6
Procedure: Adult male Wistar rats (weight 175-200 g at the initiation of the surgical procedure) were obtained from the Janvier labs (Le Gesnest-Saint-Isle) and were used for the whole experiments.
Bile duct ligation (BDL) was used as a biliary cirrhosis model. All rats oh this group were operated on. They were randomly separated in two groups: BDL or simple laparotomy (SHAM, control-group). The BDL procedure was conducted as described previously (Kountouras J, Prolonged bile duct obstruction: a new experimental model for cirrhosis in the rat; Br J Exp Pathol 1984) and as controlled in our lab. Surgery was done under total anesthesia with inhalated isofluran (Aerrane, Baxter Maurepas) 3% mixed with air. Analgesia was done by sub-cutaneous injection of buprenorphin 2% (Buprécare 0.3 mg/ml, Axience) immediately before and after surgery.
(§1) The blood sample taken during the sacrifice was centrifuged and the plasma was used to determine the levels of hepatic transaminases, total and conjugated bilirubin and ammonia. Plasmatic cytokines (IL6, TNFa, IFNg) were determined by a multiplex commercial kit.

[3] = tested on: BDL rats
Procedure: The integrity of BBB was investigated by measuring the extravasation from intra-vascular compartment of dextran-Texas Red (Life Technologies) conjugated.
Six weeks after the surgery, all rats were anesthetized with inhaleted isofluran 3%. 0.75 ml of fluorochrome was injected in the femoral vein (Texas Red 10 kDa 10 mg/ml) and circulated during 6 minutes. […] To remove the intravascular localized dye, we did a large thoracotomy to perfuse 300 ml of cold PBS (40 ml/min with a peristaltic pump) through the left cardiac ventricle.
After decapitation, the brain was rapidly removed and the olfactory bulbs and brain stem eliminated with the cerebellum.
After grinding the right hemisphere by vigorously shaking and centrifugation, the amount of fluorescent dextran (μg/g) in supernatants was measured by fluorimetry (Tecan Infinite M200) at 620 nm upon excitation at 588 nm. The content of dye was valued by interpolation in standard curve.

[4] = tested on: IFNγ; test: Plasmatic cytokines by multiplex kit; assay type: in vivo, rat; details: BDL rats treated with biotin (300 mg/kg food)
Procedure: as §1

[5] = in vivo; cited from earlier work
[6] = tested on: rats, acute liver failure induced by single high dose of CCl4; details: prior art; biotin 0.5 mg/kg BW single intraperitoneal injection, or oral with uncontrolled amount; cited from earlier work

For `O=C([O-])c1ccccc1.[Na+]` [sodium benzoate, Sodium benzoate], the “OpenField test results compared with high-dose biotin” value ([1]; sodium benzoate 200 mg/kg/d in water) was “similar”.
With `CO[C@H]1/C=C/O[C@@]2(C)Oc3c(C)c(O)c4c(O)c(c5c(nc6cc(C)ccn65)c4c3C2=O)NC(=O)/C(C)=C\C=C\[C@H](C)[C@H](O)[C@@H](C)[C@@H](O)[C@@H](C)[C@H](OC(C)=O)[C@@H]1C` [rifaximin, Rifaximin] the “OpenField test results compared with high-dose biotin” value ([1]; rifaximin 50 mg/kg/d in water) was “similar”.
With `O=C(O)CCCC[C@@H]1SC[C@@H]2NC(=O)N[C@@H]21` [biotin] the “hyperammonemia (blood ammoniemia)” value [2] was “reduce hyperammonemia”, the “neurological impairements observed in the OpenField test” value (shortened to “neurological impairements observed”) ([1]; biotin 50 mg/kg of food (5 mg/kg of animal/day)) was “not high enough to have an effect” and the “neurological impairements observed” value ([1]; biotin 300 mg/kg of food (30 mg/kg of animal/day), vs BDL rats without biotin) was “reduced”. For the same compound, the “neurological impairements observed” value ([1]; biotin 300 mg/kg of food (30 mg/kg of animal/day), vs BDL rats without biotin, listed as Biotin) was “comportmental improvement”, the “intra-cerebral quantity of dextran (BBB permeability)” value (“intra-cerebral quantity of dextran” below) ([3]; BDL rats, biotin 300 mg/kg of food, vs BDL rats on control diet) was “normalize” and the “intra-cerebral quantity of dextran” value ([3]; BDL rats, biotin 300 mg/kg of food, vs BDL rats on control diet, listed as Biotin) was “normalization of BBB permeability”. The “intra-cerebral quantity of dextran” value ([3]; biotin 50 mg/kg of food) was “did not reach normalization”, the “IFNγ levels in plasma” value [4] was “decreased” and the plasma half life [5] was “about 2 hours”. The serum ammonium level [6] was “decrease the serum ammonium level”.
